According to patent US8247211B2, “Glycopeptide antibiotics” (American Cyanamid Company, priority 2001, dated 2012):
In brackets after ≈: the same amount, converted by molar mass.

Tests used:
Assay in all cases: In vitro antibacterial evaluation: minimum inhibitory concentration (MIC), broth dilution method
Type in all cases: cell-based
Enterococcus sp. = settings: broth dilution, 5×10^5 CFU/mL, 18 hours at 35° C.
Procedure: (§1) The minimum inhibitory concentration (MIC), the lowest concentration of the antibiotic which inhibits growth of the test organism, is determined by the broth dilution method using Muller-Hinton II […] (Baltimore Biological Laboratories) following the recommendations of the National Committee for Clinical Laboratory Standards [Methods for dilution antimicrobial susceptibility tests for bacteria that grow aerobically, approved standard M7-A2, National Committee for Clinical Laboratory Standards, Villanova, Pa].
(§2) An inoculum level of 5×10^5 CFU/mL, and a range of antibiotic concentrations (64-0.06 μg/mL) is used. […] The test organisms include a spectrum of Gram-positive bacteria comprised of Staphylococcus sp., Streptococcus sp. and Enterococcus sp. These organisms include recent clinical isolates that are resistant to methicillin, penicillin and/or vancomycin.

Escherichia coli = settings: 5×10^5 CFU/mL, 18 hours at 35° C.
Procedure: as §1, §2

Staphylococcus sp. = settings: for MIC Staphylococcus aureus (ATCC 29213): strain ATCC 29213; for MIC Staphylococcus aureus (GC 1131): strain GC 1131; for MIC Staphylococcus aureus (GC 3051): strain GC 3051; for MIC Staphylococcus aureus (GC 3053): strain GC 3053; for MIC Staphylococcus aureus (GC 4541): strain GC 4541; for MIC Staphylococcus aureus (GC 4542): strain GC 4542; for MIC Staphylococcus aureus (GC 4544): strain GC 4544; for MIC Staphylococcus aureus (GC 4545): strain GC 4545
Procedure: as §1, §2

Streptococcus sp. = settings: broth dilution, 5×10^5 CFU/mL, 18 hours at 35° C.
Procedure: as §1, §2

[1] = broth dilution, 5×10^5 CFU/mL, 18 hours at 35° C.
[2] = broth dilution, 18 hours at 35° C.
[3] = strain GC 4543, broth dilution, 18 hours at 35° C.
[4] = strain GC 4546, broth dilution, 18 hours at 35° C.
[5] = strain GC 4547, broth dilution, 18 hours at 35° C.
[6] = strain GC 4548, broth dilution, 18 hours at 35° C.
[7] = strain GC 4549, broth dilution, 18 hours at 35° C.
[8] = strain GC 4551, broth dilution, 18 hours at 35° C.
[9] = strain GC 6257, broth dilution, 18 hours at 35° C.

## CC(C)=CCCC(C)C1OCC2OC(OC3C(CO)OC(Oc4ccc(CC5NC(=O)C(C(C)c6ccccc6)NC(=O)CNC(=O)C(CO)NC(=O)C(C(O)C6CNC(=N)N6C6OC(CO)C(O)C(O)C6O)NC(=O)C(C(O)C6CNC(=N)N6)NC5=O)cc4)C(O)C3O)C(O)C(O)C2O1 (stereo not drawn) [Example 125, Cyclo[glycyl-β-methylphenylalanyl-O-[4-O-[4,6-O-[2,6-dimethylhept-5-en-1-yidene)hexopyranosyl]hexopyranosyl]tyrosyl-3-(2-iminoimidazolidin-4-yl)seryl-3-(3-hexopyranosyl-2-iminoimidazolidin-4-yl)serylseryl]]
Enterococcus sp.
  MIC Enterococccus avium (GC 4558): 32 µg/mL (≈ 22.6 µM)
  MIC Enterococccus faecalis (ATCC 29212): 32 µg/mL (≈ 22.6 µM)
  MIC Enterococccus faecalis (GC 2691): 32 µg/mL (≈ 22.6 µM)
  MIC Enterococccus faecalis (GC 3059): 32 µg/mL (≈ 22.6 µM)
  MIC Enterococccus faecalis (GC 4552): 32 µg/mL (≈ 22.6 µM)
  MIC Enterococccus faecalis (GC 4553): 32 µg/mL (≈ 22.6 µM)
  MIC Enterococccus faecalis (GC 4554): 32 µg/mL (≈ 22.6 µM)
  MIC Enterococccus faecalis (GC 6189): 32 µg/mL (≈ 22.6 µM)
  MIC Enterococccus faecium (GC 2243): 32 µg/mL (≈ 22.6 µM)
  MIC Enterococccus faecium (GC 4556): 32 µg/mL (≈ 22.6 µM)
  MIC Enterococccus faecium (GC 4557): 16 µg/mL (≈ 11.3 µM)
  MIC Enterococcus faecalis (GC 2242): 32 µg/mL (≈ 22.6 µM)
Escherichia coli
  MIC Escherichia coli (ATCC 25922): >64 µg/mL
  MIC Escherichia coli (GC 4559): >64 µg/mL
  MIC Escherichia coli (GC 4560): 32 µg/mL (≈ 22.6 µM)
Staphylococcus sp.; [1]
  MIC Coagulase Negative Staphylococcus (GC 4547): 32 µg/mL (≈ 22.6 µM)
  MIC Coagulase Negative Staphylococcus (GC 4548): 32 µg/mL (≈ 22.6 µM)
  MIC Coagulase Negative Staphylococcus (GC 4549): 32 µg/mL (≈ 22.6 µM)
  MIC Coagulase Negative Staphylococcus (GC 4551): 32 µg/mL (≈ 22.6 µM)
  MIC Coagulase Negative Staphylococcus (GC 6257): 32 µg/mL (≈ 22.6 µM)
  MIC Staphylococcus aureus-SMITH (GC 4543): 32 µg/mL (≈ 22.6 µM)
  MIC Staphylococcus haemolyticus (GC 4546): 32 µg/mL (≈ 22.6 µM)
Staphylococcus sp.
  MIC Staphylococcus aureus (ATCC 29213): 32 µg/mL (≈ 22.6 µM)
  MIC Staphylococcus aureus (GC 1131): 32 µg/mL (≈ 22.6 µM)
  MIC Staphylococcus aureus (GC 3051): 32 µg/mL (≈ 22.6 µM)
  MIC Staphylococcus aureus (GC 3053): 32 µg/mL (≈ 22.6 µM)
  MIC Staphylococcus aureus (GC 4541): 8 µg/mL (≈ 5.64 µM)
  MIC Staphylococcus aureus (GC 4542): 32 µg/mL (≈ 22.6 µM)
  MIC Staphylococcus aureus (GC 4544): 32 µg/mL (≈ 22.6 µM)
  MIC Staphylococcus aureus (GC 4545): 32 µg/mL (≈ 22.6 µM)
Staphylococcus sp.; [2]
  MIC Staphylococcus aureus (ATCC 29213): 32 µg/mL (≈ 22.6 µM)
  MIC Staphylococcus aureus (GC 1131): 32 µg/mL (≈ 22.6 µM)
  MIC Staphylococcus aureus (GC 3051): 32 µg/mL (≈ 22.6 µM)
  MIC Staphylococcus aureus (GC 3053): 32 µg/mL (≈ 22.6 µM)
  MIC Staphylococcus aureus (GC 4541): 8 µg/mL (≈ 5.64 µM)
  MIC Staphylococcus aureus (GC 4542): 32 µg/mL (≈ 22.6 µM)
  MIC Staphylococcus aureus (GC 4544): 32 µg/mL (≈ 22.6 µM)
  MIC Staphylococcus aureus (GC 4545): 32 µg/mL (≈ 22.6 µM)
Staphylococcus sp.; [3]
  MIC Staphylococcus aureus-SMITH (GC 4543): 32 µg/mL (≈ 22.6 µM)
Staphylococcus sp.; [4]
  MIC Staphylococcus haemolyticus (GC 4546): 32 µg/mL (≈ 22.6 µM)
Staphylococcus sp.; [5]
  MIC Coagulase Negative Staphylococcus (GC 4547): 32 µg/mL (≈ 22.6 µM)
Staphylococcus sp.; [6]
  MIC Coagulase Negative Staphylococcus (GC 4548): 32 µg/mL (≈ 22.6 µM)
Staphylococcus sp.; [7]
  MIC Coagulase Negative Staphylococcus (GC 4549): 32 µg/mL (≈ 22.6 µM)
Staphylococcus sp.; [8]
  MIC Coagulase Negative Staphylococcus (GC 4551): 32 µg/mL (≈ 22.6 µM)
Staphylococcus sp.; [9]
  MIC Coagulase Negative Staphylococcus (GC 6257): 32 µg/mL (≈ 22.6 µM)
Streptococcus sp.
  MIC Streptococcus agalactiae (GC 4564): 1 µg/mL (≈ 0.705 µM)
  MIC Streptococcus pneumoniae (GC 1894): 0.12 µg/mL (≈ 0.0847 µM)
  MIC Streptococcus pneumoniae (GC 4565): 0.25 µg/mL (≈ 0.176 µM)
  MIC Streptococcus pneumonine (ATCC 6301): 0.25 µg/mL (≈ 0.176 µM)
  MIC Streptococcus pyogenes (GC 4563): 0.5 µg/mL (≈ 0.353 µM)

## CC(C)=CCCC(C)CC1OCC2OC(OC3C(CO)OC(Oc4ccc(CC5NC(=O)C(C(C)c6ccccc6)NC(=O)CNC(=O)C(CO)NC(=O)C(C(O)C6CNC(=N)N6C6OC(CO)C(O)C(O)C6O)NC(=O)C(C(O)C6CNC(=N)N6)NC5=O)cc4)C(O)C3O)C(O)C(O)C2O1 (stereo not drawn) [Example 126, Cyclo[glycyl-β-methylphenylalanyl-O-[4-O-[4,6-O-[3,7-dimethyloct-6-en-1-ylidene)hexopyranosyl]hexopyranosyl]tyrosyl-3-(2-iminoimidazolidin-4-yl)seryl-3-(3-hexopyranosyl-2-iminoimidazolidin-4-yl)serylseryl]]
Enterococcus sp.
  MIC Enterococccus avium (GC 4558): 8 µg/mL (≈ 5.59 µM)
  MIC Enterococccus faecalis (ATCC 29212): 8 µg/mL (≈ 5.59 µM)
  MIC Enterococccus faecalis (GC 2691): 8 µg/mL (≈ 5.59 µM)
  MIC Enterococccus faecalis (GC 3059): 8 µg/mL (≈ 5.59 µM)
  MIC Enterococccus faecalis (GC 4552): 8 µg/mL (≈ 5.59 µM)
  MIC Enterococccus faecalis (GC 4553): 8 µg/mL (≈ 5.59 µM)
  MIC Enterococccus faecalis (GC 4554): 8 µg/mL (≈ 5.59 µM)
  MIC Enterococccus faecalis (GC 6189): 8 µg/mL (≈ 5.59 µM)
  MIC Enterococccus faecium (GC 2243): 8 µg/mL (≈ 5.59 µM)
  MIC Enterococccus faecium (GC 4556): 8 µg/mL (≈ 5.59 µM)
  MIC Enterococccus faecium (GC 4557): 8 µg/mL (≈ 5.59 µM)
  MIC Enterococcus faecalis (GC 2242): 8 µg/mL (≈ 5.59 µM)
Escherichia coli
  MIC Escherichia coli (ATCC 25922): 64 µg/mL (≈ 44.7 µM)
  MIC Escherichia coli (GC 4559): 64 µg/mL (≈ 44.7 µM)
  MIC Escherichia coli (GC 4560): 8 µg/mL (≈ 5.59 µM)
Staphylococcus sp.; [1]
  MIC Coagulase Negative Staphylococcus (GC 4547): 8 µg/mL (≈ 5.59 µM)
  MIC Coagulase Negative Staphylococcus (GC 4548): 8 µg/mL (≈ 5.59 µM)
  MIC Coagulase Negative Staphylococcus (GC 4549): 8 µg/mL (≈ 5.59 µM)
  MIC Coagulase Negative Staphylococcus (GC 4551): 8 µg/mL (≈ 5.59 µM)
  MIC Coagulase Negative Staphylococcus (GC 6257): 8 µg/mL (≈ 5.59 µM)
  MIC Staphylococcus aureus-SMITH (GC 4543): 8 µg/mL (≈ 5.59 µM)
  MIC Staphylococcus haemolyticus (GC 4546): 8 µg/mL (≈ 5.59 µM)
Staphylococcus sp.
  MIC Staphylococcus aureus (ATCC 29213): 8 µg/mL (≈ 5.59 µM)
  MIC Staphylococcus aureus (GC 1131): 8 µg/mL (≈ 5.59 µM)
  MIC Staphylococcus aureus (GC 3051): 8 µg/mL (≈ 5.59 µM)
  MIC Staphylococcus aureus (GC 3053): 8 µg/mL (≈ 5.59 µM)
  MIC Staphylococcus aureus (GC 4541): 8 µg/mL (≈ 5.59 µM)
  MIC Staphylococcus aureus (GC 4542): 8 µg/mL (≈ 5.59 µM)
  MIC Staphylococcus aureus (GC 4544): 8 µg/mL (≈ 5.59 µM)
  MIC Staphylococcus aureus (GC 4545): 8 µg/mL (≈ 5.59 µM)
Staphylococcus sp.; [2]
  MIC Staphylococcus aureus (ATCC 29213): 8 µg/mL (≈ 5.59 µM)
  MIC Staphylococcus aureus (GC 1131): 8 µg/mL (≈ 5.59 µM)
  MIC Staphylococcus aureus (GC 3051): 8 µg/mL (≈ 5.59 µM)
  MIC Staphylococcus aureus (GC 3053): 8 µg/mL (≈ 5.59 µM)
  MIC Staphylococcus aureus (GC 4541): 8 µg/mL (≈ 5.59 µM)
  MIC Staphylococcus aureus (GC 4542): 8 µg/mL (≈ 5.59 µM)
  MIC Staphylococcus aureus (GC 4544): 8 µg/mL (≈ 5.59 µM)
  MIC Staphylococcus aureus (GC 4545): 8 µg/mL (≈ 5.59 µM)
Staphylococcus sp.; [3]
  MIC Staphylococcus aureus-SMITH (GC 4543): 8 µg/mL (≈ 5.59 µM)
Staphylococcus sp.; [4]
  MIC Staphylococcus haemolyticus (GC 4546): 8 µg/mL (≈ 5.59 µM)
Staphylococcus sp.; [5]
  MIC Coagulase Negative Staphylococcus (GC 4547): 8 µg/mL (≈ 5.59 µM)
Staphylococcus sp.; [6]
  MIC Coagulase Negative Staphylococcus (GC 4548): 8 µg/mL (≈ 5.59 µM)
Staphylococcus sp.; [7]
  MIC Coagulase Negative Staphylococcus (GC 4549): 8 µg/mL (≈ 5.59 µM)
Staphylococcus sp.; [8]
  MIC Coagulase Negative Staphylococcus (GC 4551): 8 µg/mL (≈ 5.59 µM)
Staphylococcus sp.; [9]
  MIC Coagulase Negative Staphylococcus (GC 6257): 8 µg/mL (≈ 5.59 µM)
Streptococcus sp.
  MIC Streptococcus agalactiae (GC 4564): 1 µg/mL (≈ 0.699 µM)
  MIC Streptococcus pneumoniae (GC 1894): <0.06 µg/mL
  MIC Streptococcus pneumoniae (GC 4565): <0.06 µg/mL
  MIC Streptococcus pneumonine (ATCC 6301): <0.06 µg/mL
  MIC Streptococcus pyogenes (GC 4563): 0.12 µg/mL (≈ 0.0838 µM)
